How the values were obtained:
Format in all cases: in vivo
[1] = test system: Digitaria sanguinalis (DIGSA); test: Herbicidal pre-emergence action (C), 320 g/ha; settings: ca. 3 weeks
Procedure, shortened: (§1)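 Weed and crop seeds sown in sandy loam; WP or EC formulations applied pre-emergence to the soil surface as aqueous suspension/emulsion with 0.5% additive at 600 l water/ha. Greenhouse-grown under optimum conditions; damage visually scored after ca. 3 weeks versus untreated controls (0% = as control, 100% = plants dead).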

[2] = test system: Avena fatua; test: Herbicidal pre-emergence action (C), 320 g/ha; settings: ca. 3 weeks
Procedure, shortened: as §1

[3] = test system: Digitaria sanguinalis (DIGSA); test: Herbicidal post-emergence action (D), 320 g/ha; settings: ca. 3 weeks
Excerpt: (§2) Seeds of mono- and dicotyledonous weed plants and crop plants were sown, in plastic or organic planting pots, in sandy loam, covered with soil and grown in a greenhouse under controlled growth conditions. 2 to 3 weeks after sowing, the test plants were sprayed in the single-leaf stage. The compounds according to the invention, formulated in form of wettable powders (WP) or as emulsifiable concentrates (EC), were sprayed onto the green plant parts as aqueous suspension or emulsion, with the addition of 0.5% of an additive, at an application rate of 600 l of water/ha (converted). The test plants were placed in the greenhouse for ca. 3 weeks under optimum growth conditions, and then the effect of the preparations was assessed visually in comparison with untreated controls (herbicidal effect in percent (%): 100% effect=plants have died off, 0% effect=as control plants).
(§3) Tables D1 to D13 below show the effects of selected compounds of the general formula (I) according to table 1 on various harmful plants and an application rate corresponding to 320 g/ha obtained by the experimental procedure mentioned above.

[4] = test system: Avena fatua; test: Herbicidal post-emergence action (D), 320 g/ha; settings: ca. 3 weeks
Excerpt: as §2, §3

[5] = test system: Lolium rigidum (LOLRI); test: Herbicidal pre-emergence action (C), 320 g/ha; settings: ca. 3 weeks
Procedure, shortened: (§4)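 Pre-emergence greenhouse test: visual damage rating at about 3 weeks relative to untreated plants, 100% meaning death and 0% no effect. Compounds, as wettable powders or emulsifiable concentrates with 0.5% additive, were applied at 320 g/ha (600 l water/ha) onto soil covering seeds sown in sandy loam.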

[6] = test system: Echinochloa crus-galli (ECHCG); test: Herbicidal pre-emergence action (C), 320 g/ha; settings: ca. 3 weeks
Procedure, shortened: as §4

[7] = test system: Matricaria inodora (MATIN); test: Herbicidal pre-emergence action (C), 320 g/ha; settings: ca. 3 weeks
Procedure, shortened: as §4

[8] = test system: Veronica persica (VERPE); test: Herbicidal pre-emergence action (C), 320 g/ha; settings: ca. 3 weeks
Procedure, shortened: as §4

[9] = test system: Polygonum convolvulus (POLCO); test: Herbicidal pre-emergence action (C), 320 g/ha; settings: ca. 3 weeks
Procedure, shortened: as §4

[10] = test system: Amaranthus retroflexus (AMARE); test: Herbicidal pre-emergence action (C), 320 g/ha; settings: ca. 3 weeks
Procedure, shortened: as §4

[11] = test system: Setaria viridis (SETVI); test: Herbicidal pre-emergence action (C), 320 g/ha; settings: ca. 3 weeks
Procedure, shortened: as §4

[12] = test system: Viola tricolor (VIOTR); test: Herbicidal pre-emergence action (C), 320 g/ha; settings: ca. 3 weeks
Procedure, shortened: as §4

[13] = test system: Stellaria media (STEME); test: Herbicidal pre-emergence action (C), 320 g/ha; settings: visual grading after ca. 3 weeks vs untreated controls, 100% = plants have died off, 0% = as control plants
Procedure, shortened: as §4

[14] = test system: Alopecurus myosuroides (ALOMY); test: Herbicidal pre-emergence action (C), 320 g/ha; settings: ca. 3 weeks
Procedure, shortened: as §4

[15] = test system: Abutilon theophrasti (ABUTH); test: Herbicidal pre-emergence action (C), 320 g/ha; settings: ca. 3 weeks
Procedure, shortened: as §4

[16] = test system: Lolium rigidum (LOLRI); test: Herbicidal post-emergence action (D), 320 g/ha; settings: ca. 3 weeks
Procedure, shortened: (§5)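 Seedlings reaching the single-leaf stage 2 to 3 weeks after sowing in sandy loam received a foliar spray of the formulated compound (WP or EC, 0.5% additive, 600 l water/ha). Damage is rated visually after about 3 weeks in the greenhouse as percent effect relative to untreated plants.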

[17] = test system: Echinochloa crus-galli (ECHCG); test: Herbicidal post-emergence action (D), 320 g/ha; settings: ca. 3 weeks
Procedure, shortened: as §5

[18] = test system: Matricaria inodora (MATIN); test: Herbicidal post-emergence action (D), 320 g/ha; settings: single-leaf stage, assessed visually after ca. 3 weeks vs untreated controls, 100% = plants have died off, 0% = as control plants
Procedure, shortened: as §5

[19] = test system: Veronica persica (VERPE); test: Herbicidal post-emergence action (D), 320 g/ha; settings: ca. 3 weeks
Procedure, shortened: as §5

[20] = test system: Polygonum convolvulus (POLCO); test: Herbicidal post-emergence action (D), 320 g/ha; settings: ca. 3 weeks
Procedure, shortened: as §5

[21] = test system: Amaranthus retroflexus (AMARE); test: Herbicidal post-emergence action (D), 320 g/ha; settings: ca. 3 weeks
Procedure, shortened: as §5

[22] = test system: Setaria viridis (SETVI); test: Herbicidal post-emergence action (D), 320 g/ha; settings: ca. 3 weeks
Procedure, shortened: as §5

[23] = test system: Viola tricolor (VIOTR); test: Herbicidal post-emergence action (D), 320 g/ha; settings: ca. 3 weeks
Procedure, shortened: as §5

[24] = test system: Stellaria media (STEME); test: Herbicidal post-emergence action (D), 320 g/ha; settings: ca. 3 weeks
Procedure, shortened: as §5

[25] = test system: Alopecurus myosuroides (ALOMY); test: Herbicidal post-emergence action (D), 320 g/ha; settings: ca. 3 weeks
Procedure, shortened: as §5

[26] = test system: Abutilon theophrasti (ABUTH); test: Herbicidal post-emergence action (D), 320 g/ha; settings: ca. 3 weeks
Procedure, shortened: as §5

[27] = test system: Echinochloa crus-galli (ECHCG); test: Herbicidal post-emergence action (B), 1280 g/ha; settings: rated visually after about 3 weeks vs untreated controls
Procedure, shortened: (§6)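 Greenhouse-grown weeds at the one-leaf stage received a foliar spray of the formulated compound (WP or EC, 0.5% additive, 600 L/ha). Damage was scored visually after about 3 weeks on a 0–100% scale against untreated plants.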

[28] = test system: Veronica persica (VERPE); test: Herbicidal post-emergence action (B), 1280 g/ha
Procedure, shortened: as §6

[29] = test system: Kochia scoparia (KCHSC; Bassia scoparia); test: Herbicidal post-emergence action (B), 1280 g/ha
Procedure, shortened: as §6

[30] = test system: Amaranthus retroflexus (AMARE); test: Herbicidal post-emergence action (B), 1280 g/ha; settings: rated visually after about 3 weeks vs untreated controls
Procedure, shortened: as §6

[31] = test system: Stellaria media (STEME); test: Herbicidal post-emergence action (B), 1280 g/ha
Procedure, shortened: as §6

[32] = test system: Poa annua (POAAN); test: Herbicidal post-emergence action (B), 1280 g/ha; settings: rated visually after about 3 weeks vs untreated controls
Procedure, shortened: as §6

[33] = test system: Alopecurus myosuroides (ALOMY); test: Herbicidal post-emergence action (B), 1280 g/ha; settings: rated visually after about 3 weeks vs untreated controls
Procedure, shortened: as §6

[34] = test system: Abutilon theophrasti (ABUTH); test: Herbicidal post-emergence action (B), 1280 g/ha; settings: rated visually after about 3 weeks vs untreated controls
Procedure, shortened: as §6

[35] = test system: Lolium rigidum (LOLRI); test: Herbicidal pre-emergence action (A), 1280 g/ha; settings: visual grading after ca. 3 weeks vs untreated controls, 100% = plants have died off, 0% = as control plants
Procedure, shortened: (§7)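 Visual grading of plant damage in percent (0% as untreated control, 100% dead) was done about 3 weeks after treatment. Compounds, as WP or EC in water with 0.5% additive, had been sprayed at 600 l/ha onto the covering soil of freshly sown sandy loam pots.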

[36] = test system: Echinochloa crus-galli (ECHCG); test: Herbicidal pre-emergence action (A), 1280 g/ha; settings: visual grading after ca. 3 weeks vs untreated controls, 100% = plants have died off, 0% = as control plants
Procedure, shortened: as §7

[37] = test system: Matricaria inodora (MATIN); test: Herbicidal pre-emergence action (A), 1280 g/ha; settings: visual grading after ca. 3 weeks vs untreated controls
Procedure, shortened: as §7

[38] = test system: Veronica persica (VERPE); test: Herbicidal pre-emergence action (A), 1280 g/ha; settings: visual grading after ca. 3 weeks vs untreated controls
Procedure, shortened: as §7

[39] = test system: Kochia scoparia (KCHSC; Bassia scoparia); test: Herbicidal pre-emergence action (A), 1280 g/ha; settings: visual grading after ca. 3 weeks vs untreated controls
Procedure, shortened: as §7

[40] = test system: Setaria viridis (SETVI); test: Herbicidal pre-emergence action (A), 1280 g/ha; settings: visual grading after ca. 3 weeks vs untreated controls
Procedure, shortened: as §7

[41] = test system: Stellaria media (STEME); test: Herbicidal pre-emergence action (A), 1280 g/ha; settings: visual grading after ca. 3 weeks vs untreated controls
Procedure, shortened: as §7

[42] = test system: Poa annua (POAAN); test: Herbicidal pre-emergence action (A), 1280 g/ha; settings: visual grading after ca. 3 weeks vs untreated controls, 100% = plants have died off, 0% = as control plants
Procedure, shortened: as §7

[43] = test system: Alopecurus myosuroides (ALOMY); test: Herbicidal pre-emergence action (A), 1280 g/ha; settings: visual grading after ca. 3 weeks vs untreated controls, 100% = plants have died off, 0% = as control plants
Procedure, shortened: as §7

Cc1cc2scnc2nc1-c1ccccc1F [Example I-002]
herbicidal effect DIGSA [1]: 100% | herbicidal effect AVEFA [2]: 100% | herbicidal effect DIGSA [3]: 90% | herbicidal effect AVEFA [4]: 80% | herbicidal effect LOLRI [5]: 100% | herbicidal effect ECHCG [6]: 100% | herbicidal effect MATIN [7]: 90% | herbicidal effect VERPE [8]: 90% | herbicidal effect POLCO [9]: 90% | herbicidal effect AMARE [10]: 90% | herbicidal effect SETVI [11]: 100% | herbicidal effect VIOTR [12]: 80% | STEME, herbicidal effect in percent (%) [13]: 90% | herbicidal effect ALOMY [14]: 100% | herbicidal effect ABUTH [15]: 90% | herbicidal effect LOLRI [16]: 80% | herbicidal effect ECHCG [17]: 100% | MATIN, herbicidal effect in percent (%) [18]: 80% | herbicidal effect VERPE [19]: 80% | herbicidal effect POLCO [20]: 90% | herbicidal effect AMARE [21]: 90% | herbicidal effect SETVI [22]: 90% | herbicidal effect VIOTR [23]: 80% | herbicidal effect STEME [24]: 90% | herbicidal effect ALOMY [25]: 90% | herbicidal effect ABUTH [26]: 80%

Fc1cccc(F)c1-c1nc2ncsc2cc1Cl [Example I-087]
herbicidal effect AVEFA [2]: 80% | herbicidal effect AVEFA [4]: 80% | herbicidal effect LOLRI [5]: 100% | herbicidal effect ECHCG [6]: 100% | herbicidal effect MATIN [7]: 90% | herbicidal effect VERPE [8]: 90% | herbicidal effect POLCO [9]: 90% | herbicidal effect AMARE [10]: 80% | herbicidal effect SETVI [11]: 100% | herbicidal effect VIOTR [12]: 80% | herbicidal effect ALOMY [14]: 100% | herbicidal effect ABUTH [15]: 90% | herbicidal effect LOLRI [16]: 80% | herbicidal effect ECHCG [17]: 90% | herbicidal effect VERPE [19]: 90% | herbicidal effect POLCO [20]: 90% | herbicidal effect SETVI [22]: 90% | herbicidal effect VIOTR [23]: 80% | herbicidal effect ALOMY [25]: 90% | herbicidal effect ABUTH [26]: 80%

Cc1ccsc1-c1nc2ncsc2cc1Cl [Example I-192]
herbicidal activity ECHCG [27]: 100% | herbicidal effect VERPE [28]: 100% | herbicidal effect KCHSC [29]: 90% | herbicidal activity AMARE [30]: 100% | herbicidal effect STEME [31]: 90% | herbicidal activity POAAN [32]: 90% | herbicidal activity ALOMY [33]: 100% | herbicidal activity ABUTH [34]: 100% | LOLRI, herbicidal effect in percent (%) [35]: 100% | ECHCG, herbicidal effect in percent (%) [36]: 100% | herbicidal effect MATIN [37]: 100% | herbicidal effect VERPE [38]: 90% | herbicidal effect KCHSC [39]: 100% | herbicidal effect SETVI [40]: 100% | herbicidal effect STEME [41]: 100% | POAAN, herbicidal effect in percent (%) [42]: 100% | ALOMY, herbicidal effect in percent (%) [43]: 100% | herbicidal effect AVEFA [4]: 80% | herbicidal effect LOLRI [5]: 100% | herbicidal effect ECHCG [6]: 100% | herbicidal effect VERPE [8]: 90% | herbicidal effect AMARE [10]: 100% | herbicidal effect SETVI [11]: 100% | herbicidal effect ALOMY [14]: 100% | herbicidal effect ECHCG [17]: 100% | herbicidal effect VERPE [19]: 80% | herbicidal effect SETVI [22]: 80% | herbicidal effect ALOMY [25]: 90%

— patent publication US20230151025A1, “SUBSTITUTED THIAZOLOPYRIDINES, SALTS THEREOF AND THEIR USE AS HERBICIDALLY ACTIVE SUBSTANCES” (Bayer Aktiengesellschaft, priority 2020, published 2023)
